Data from patent US12391687B2, “Five-and-six-membered heterocyclic compound and use thereof as protein receptor kinase inhibitor” (SHANGHAI ENNOVABIO PHARMACEUTICALS CO., LTD., priority 2018, dated 2025).

What was measured:
Recombinant human TRKB = Recombinant human TRKB (Homo sapiens (Human), UniProt Q16620); test: In vitro activity test on TRKB kinase (HTRF kinEASE TK); format: biochemical; settings: 4.77 μM ATP, 50 min, room temperature
Procedure: (§1) Recombinant human TRKA, TRKB, TRKC proteins were purchased from Carna Biosciences. HTRF kinEASE TK kit was purchased from Cisbio Bioassays. Synergy Neo 2 of Biotek was used to read the plate.
(§2) The tested compounds were subjected to 3-fold serial dilution to reach a final concentration of 1 μM to 0.05 nM (10 concentrations), duplicates for each concentration; and the DMSO concentration in the detection reaction was 1%.
(§3) 0.037 ng/μL TRKB protein kinase, 1 μM TK Substrate-biotin polypeptide substrate, 4.77 μM ATP, 1× enzymatic buffer, 5 mM MgCl2, 1 mM MnCl2 and 1 mM DTT. The assay plate was White Proxiplate 384-Plus plate (PerkinElmer), the reaction was incubated at room temperature for 50 min, and the assay volume was 10 μL.
(§4) 10 μL of detection reagent (containing 0.125 μM SA-XL665 and 5 μL 1×TK-Antibody) was added to the plate and incubated overnight at room temperature. Synergy Neo 2 was used to read the plate.
(§5) The 665/620 Ratio was converted according to the following formula into inhibition rate (%)=(1−Ratiotest/Ratiomax)×100%. Ratiomax was the value of positive controls without tested compound, and Ratiotest was the value of each concentration of different compounds. IC50 (nM) data was obtained by 4 parameter curve fitting (see Table 1).

KM12-LUC cells = test: KM12-LUC cell proliferation experiment (CellTiter-Glo); format: cell-based; settings: human colon cancer cell line with TPM3-NTRK1 fusion, 72 hours
Procedure: Human colon cancer cell line KM12-LUC (LUC, stably expressing Luciferase) expressing TPM3-NTRK1 fusion gene was used to evaluate cellular activity of the compounds. The TRK fusion gene in KM12-LUC cells makes the sustained activation of TRK and the downstream signaling pathways associated with cell proliferation such as MAPK-ERK, PI3K-AKT, etc independent of the stimulation of extracellular growth factor. […] The method was as follows: On the first day, the cells were seeded into 384-well plates at 2000 cells/well; on the second day, different concentrations of test compounds were added; and on the 5th day, CellTiter-Glo (Promega) was added to detect cell viability, and the cell proliferation inhibition rate at 72 hours was calculated. Statistical analysis was carried out by PRISM5 and the IC50 of the test compounds was calculated.

Recombinant human TRKC = Recombinant human TRKC (Homo sapiens (Human), UniProt Q16288); test: In vitro activity test on TRKC kinase (HTRF kinEASE TK); format: biochemical; settings: 25.64 μM ATP, 40 min, room temperature
Procedure: as §1, §2
as §3, with “ng/μL TRKC” for “ng/μL TRKB”, “substrate, 25.64” for “substrate, 4.77”, “MgCl2,” for “MgCl2, 1 mM MnCl2”, “The detection” for “The assay”, “for 40” for “for 50”
as §4, §5

[1] = target: recombinant human TRKA (G595R) (Homo sapiens (Human), UniProt P04629, G595R); test: In vitro activity test on mutant TRKA (G595R) (HTRF kinEASE TK); format: biochemical; settings: 4.5 μM ATP, 30 min, room temperature; read-out: TRKA (G595R) IC 50
Procedure: The recombinant human TRKA (G595R), TRKA (G667C) and TRKC (G623R) proteins were purchased from SignalChem. HTRF kinEASE TK kit was purchased from Cisbio Bioassays. Synergy Neo 2 of Biotek was used to read the plate.
The tested compounds were subjected to 4-fold serial dilution to reach a final concentration of 1 μM to 0.004 nM (10 concentrates), duplicates for each concentration; and the final concentration of DMSO in the reaction was 1%.
0.12 ng/μL TRKA (G595R) kinase, 1 μM TK Substrate-biotin polypeptide substrate, 4.5 μM ATP, 1× enzymatic buffer, 5 mM MgCl2, and 1 mM DTT. The assay plate was White Proxiplate384-Plus plate (PerkinElmer), and the reaction was incubated at room temperature for 30 min, and the assay volume was 10 μL.
10 μL of detection reagent (containing 0.125 μM SA-XL665 and 5 μL 1×TK-Antibody) was added to the plate and incubated overnight at room temperature, and Synergy Neo 2 was used to read the plate.
The value of 665/620 Ratio minus the value of negative control wells without enzyme, then the obtained value was converted according to the following formula into inhibition rate (%)=(1−Ratiotest/Ratiomax)×100%. Ratiomax was the value of positive controls without tested compound, and Ratiotest was the value of each concentration of different compounds. IC50 (nM) data was obtained by 4 parameter curve fitting (see Table 3).

Recombinant human TRKA = Recombinant human TRKA (Homo sapiens (Human), UniProt P04629); test: In vitro activity test on TRKA kinase (HTRF kinEASE TK); format: biochemical; settings: 14.68 μM ATP, 40 min, room temperature
Procedure: as §1, §2
0.2 ng/μL TRKA protein kinase, 1 μM TK Substrate-biotin polypeptide substrate, 14.68 μM ATP, 1×enzymatic buffer, 5 mM MgCl2, and 1 mM DTT. The assay plate was White Proxiplate384-Plus plate (PerkinElmer), and the reaction was incubated at room temperature for 40 min, and the assay volume was 10 μL.
as §4, §5

Sequence of Recombinant human TRKC (Q16288 32-839): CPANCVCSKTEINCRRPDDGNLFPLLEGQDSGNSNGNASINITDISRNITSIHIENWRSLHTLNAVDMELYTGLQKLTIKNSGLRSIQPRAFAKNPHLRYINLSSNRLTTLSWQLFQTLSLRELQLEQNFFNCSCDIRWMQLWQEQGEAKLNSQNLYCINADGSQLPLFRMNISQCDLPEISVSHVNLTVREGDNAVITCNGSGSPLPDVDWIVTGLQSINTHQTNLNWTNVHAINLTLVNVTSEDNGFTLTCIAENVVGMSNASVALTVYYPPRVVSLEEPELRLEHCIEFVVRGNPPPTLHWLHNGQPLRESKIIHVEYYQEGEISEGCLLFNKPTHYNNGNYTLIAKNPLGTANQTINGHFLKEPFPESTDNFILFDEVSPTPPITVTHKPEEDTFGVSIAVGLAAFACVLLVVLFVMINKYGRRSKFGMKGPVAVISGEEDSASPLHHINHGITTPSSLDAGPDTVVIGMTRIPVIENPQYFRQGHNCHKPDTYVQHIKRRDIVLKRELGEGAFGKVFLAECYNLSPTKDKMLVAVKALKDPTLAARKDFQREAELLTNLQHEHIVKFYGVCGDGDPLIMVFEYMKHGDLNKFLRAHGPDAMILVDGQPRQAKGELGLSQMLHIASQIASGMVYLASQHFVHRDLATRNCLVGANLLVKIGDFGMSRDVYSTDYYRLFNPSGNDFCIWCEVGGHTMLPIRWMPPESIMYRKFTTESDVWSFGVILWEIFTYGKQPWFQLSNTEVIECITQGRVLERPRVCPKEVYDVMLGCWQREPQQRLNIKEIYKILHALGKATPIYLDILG
Sequence of Recombinant human TRKB (Q16620 32-822): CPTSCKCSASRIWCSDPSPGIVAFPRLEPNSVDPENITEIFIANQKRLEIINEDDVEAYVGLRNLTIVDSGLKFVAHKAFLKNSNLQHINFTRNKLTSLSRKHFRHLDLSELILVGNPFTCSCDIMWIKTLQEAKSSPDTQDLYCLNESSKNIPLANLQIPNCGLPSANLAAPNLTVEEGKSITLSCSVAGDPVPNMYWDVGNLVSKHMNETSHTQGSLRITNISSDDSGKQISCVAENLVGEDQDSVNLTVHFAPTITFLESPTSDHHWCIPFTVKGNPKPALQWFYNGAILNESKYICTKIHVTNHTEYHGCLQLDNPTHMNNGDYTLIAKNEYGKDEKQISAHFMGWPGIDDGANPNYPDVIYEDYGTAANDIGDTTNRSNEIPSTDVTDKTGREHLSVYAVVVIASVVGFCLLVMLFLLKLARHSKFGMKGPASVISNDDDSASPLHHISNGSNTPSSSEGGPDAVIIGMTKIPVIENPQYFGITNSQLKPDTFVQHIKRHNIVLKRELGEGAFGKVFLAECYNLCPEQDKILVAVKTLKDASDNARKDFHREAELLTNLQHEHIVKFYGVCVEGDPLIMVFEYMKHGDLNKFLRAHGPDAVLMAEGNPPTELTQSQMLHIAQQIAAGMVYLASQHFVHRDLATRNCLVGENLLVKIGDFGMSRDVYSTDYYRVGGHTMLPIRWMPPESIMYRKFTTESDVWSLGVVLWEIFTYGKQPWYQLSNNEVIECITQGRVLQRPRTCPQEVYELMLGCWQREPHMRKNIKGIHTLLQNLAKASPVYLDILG
Sequence of Recombinant human TRKA (P04629 33-796): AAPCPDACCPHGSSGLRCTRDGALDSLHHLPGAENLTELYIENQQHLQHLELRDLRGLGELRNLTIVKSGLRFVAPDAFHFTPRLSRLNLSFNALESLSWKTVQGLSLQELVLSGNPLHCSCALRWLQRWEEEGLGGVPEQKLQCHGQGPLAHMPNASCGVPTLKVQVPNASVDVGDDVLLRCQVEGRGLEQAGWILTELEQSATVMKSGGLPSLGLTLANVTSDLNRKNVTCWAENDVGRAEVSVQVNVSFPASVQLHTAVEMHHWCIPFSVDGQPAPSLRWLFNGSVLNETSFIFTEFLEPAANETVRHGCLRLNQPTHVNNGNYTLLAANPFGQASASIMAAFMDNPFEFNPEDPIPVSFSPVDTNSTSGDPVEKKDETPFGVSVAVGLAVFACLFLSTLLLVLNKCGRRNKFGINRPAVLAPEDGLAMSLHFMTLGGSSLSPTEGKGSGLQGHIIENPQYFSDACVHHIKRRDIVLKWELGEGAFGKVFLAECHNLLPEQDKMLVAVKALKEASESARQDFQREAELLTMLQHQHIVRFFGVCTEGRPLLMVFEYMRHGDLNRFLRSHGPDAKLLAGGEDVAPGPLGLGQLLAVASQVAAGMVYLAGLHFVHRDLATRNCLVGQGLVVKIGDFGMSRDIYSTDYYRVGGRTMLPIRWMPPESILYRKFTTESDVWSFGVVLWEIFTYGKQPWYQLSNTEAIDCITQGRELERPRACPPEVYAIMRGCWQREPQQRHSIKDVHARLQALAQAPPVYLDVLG
Sequence of recombinant human TRKA (G595R) (P04629 33-796 G595R): as the sequence (P04629 33-796) above, with G563R counted along it

IC50 (Recombinant human TRKB) | IC50 (Recombinant human TRKC) | IC50 [1] | IC50 (Recombinant human TRKA) | Compound | IC50 (KM12-LUC cells)
< 1 nM | < 1 nM | < 1 nM | < 1 nM | Fc1ccc(F)c([C@H]2C[C@H](F)CN2c2n[nH]c3ncc(-c4ccn(CC(F)F)n4)cc23)c1 [Example 36, 5-(1-(2,2-difluoroethyl)-1H-pyrazol-3-yl)-3-((2R,4S)-2-(2,5-difluorophenyl)-4-fluoropyrrolidin-1-yl)-1H-pyrazolo[3,4-b]pyridine] | < 10 nM
< 1 nM | < 1 nM | < 1 nM | < 1 nM | COCc1nnc(-c2cnc3[nH]nc(N4C[C@@H](F)C[C@@H]4c4cc(F)ccc4F)c3c2)o1 [Example 37, 2-(3-((2R,4S)-2-(2,5-difluorophenyl)-4-fluoropyrrolidin-1-yl)-1H-pyrazolo[3,4-b]pyridin-5-yl)-5-(methoxymethyl)-1,3,4-oxadiazole] | < 10 nM
